One data set can be described thus: Solubility. In kind it is physicochemical.
The test system of another data set is U937 monocyte cells. The conditions noted are these: for % Viability: human.

Like-named read-outs stand apart in the source and are kept apart here.

Procedure for U937 monocyte cells: The human monocytic cell line U937 was obtained from the American Type Culture Collection (Manassas, Va., USA). Cells are maintained in RPMI 1640 media enriched with 10% heat-inactivated FBS, 2 mM L-Glutamine, 10 mM HEPES buffer, 0.1 mM non-essential Amino Acids, 1% antibiotic/antimycotic, and 50 uM beta mercaptoethanol at 37° C., 6% CO2.

With C70-(DMAE)4, the solubility in buffer entry in “Solubility” (buffer) is listed as “moderate solubility”.

For `O=C1O[C@H]([C@@H](O)CO)C(O)=C1O` [Vitamin C], the “toxic effects on the viability of serum-starved cell” value in the data set with U937 monocyte cells is “did not have toxic effects”. Also, the “% Viability” value with U937 monocyte cells (3 day, 0.67 uM) is on record as 98.8% ± 0.06; with U937 monocyte cells (3 day, 6.7 uM), 97.4% ± 1.86; in the data set with U937 monocyte cells (3 day, 67 uM) it was 98.2% ± 0.67; in the data set with U937 monocyte cells (6 day, 0.67 uM) it was 93.8% ± 1.09; with U937 monocyte cells (6 day, 6.7 uM), 91.2% ± 0.33; in the data set on U937 monocyte cells (6 day, 67 uM), 90.9% ± 0.07. Moreover, the “% Viability” value is recorded as 60.9% ± 1.13 in the data set with U937 monocyte cells (9 day, 0.67 uM); 61.8% ± 1.10 with U937 monocyte cells (9 day, 6.7 uM); 60.7% ± 0.28 in the data set on U937 monocyte cells (9 day, 67 uM).

As usually defined, the solubility is the concentration that dissolves in the medium under given conditions. Lower therefore signals a poorly soluble substance. C70-Tetrapyridine: in “Solubility” (DI water and phosphate buffered saline), the solubility is greater than 2000 µg/mL.

C70-Tetraphosphate: in “Solubility” (slightly basic aqueous solution, pH adjusted to 7.4), the “dissolution in aqueous solution” value was “remained dissolved”.
